The text below walks through data of BindingDB's records for PubMed 8558445 (Abbott Laboratories, 1996).

The test concerns the target Neuronal acetylcholine receptor subunit alpha-4 (Homo sapiens, UniProt P43681).

Sequence of Neuronal acetylcholine receptor subunit alpha-4 (P43681 whole entry): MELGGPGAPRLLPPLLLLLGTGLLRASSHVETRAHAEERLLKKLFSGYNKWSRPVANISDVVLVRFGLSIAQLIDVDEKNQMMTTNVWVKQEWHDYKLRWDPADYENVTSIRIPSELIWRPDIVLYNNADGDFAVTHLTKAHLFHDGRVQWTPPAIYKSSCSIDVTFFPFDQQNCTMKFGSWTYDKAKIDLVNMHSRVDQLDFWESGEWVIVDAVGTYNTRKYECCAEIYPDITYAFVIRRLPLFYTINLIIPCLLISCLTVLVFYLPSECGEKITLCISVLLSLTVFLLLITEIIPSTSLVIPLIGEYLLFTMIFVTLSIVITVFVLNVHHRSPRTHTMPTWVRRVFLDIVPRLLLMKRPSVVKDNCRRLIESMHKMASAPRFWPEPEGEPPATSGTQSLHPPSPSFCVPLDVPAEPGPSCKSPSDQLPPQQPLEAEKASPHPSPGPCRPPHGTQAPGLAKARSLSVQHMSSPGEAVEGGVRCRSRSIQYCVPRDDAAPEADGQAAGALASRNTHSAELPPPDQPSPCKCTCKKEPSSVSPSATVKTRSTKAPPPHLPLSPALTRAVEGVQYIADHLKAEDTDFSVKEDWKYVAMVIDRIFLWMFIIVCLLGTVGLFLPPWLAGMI

`C=C(C=O)C[C@H]1C[C@H](O)[C@]2(C)O[C@@H]3C[C@@H]4O[C@@H]5C[C@]6(C)O[C@]7(C)CC[C@@H]8O[C@@H]9C[C@]%10(C)O[C@@H]%11C(C)=CC(=O)O[C@H]%11C[C@H]%10O[C@H]9C[C@@H](C)[C@H]8O[C@H]7C[C@H]6O[C@@]5(C)C/C=C\[C@H]4O[C@H]3C[C@H]2O1`: affinity was put at a Ki of 4730 nM.
The figure for `O=c1cccc2n1C[C@H]1CNC[C@H]2C1` [(1S,9R)-7,11-diazatricyclo[7.3.1.0~2,7~]trideca-2,4-dien-6-one] is 0.43 nM.
The figure for `C[N+](C)(C)CCOC(N)=O` [(2-Hydroxyethyl)trimethyl ammonium chloride carbamate] is 68.2 nM.
The same measure for `c1cncc(C2CCCCN2)c1` (stereo not drawn) [(+-)-anabasine]: 37.6 nM.
In turn, `COc1cc2c3cc1Oc1cc(ccc1O)C[C@H]1c4c(cc(OC)c(O)c4Oc4ccc(cc4)C[C@@H]3N(C)CC2)CC[N+]1(C)C` [CAS_57-94-3] yielded a Ki of 3480 nM.
Turning to `C[N+](C)(C)CC[N+]1(C)Cc2c(Cl)c(Cl)c(Cl)c(Cl)c2C1` [CAS_6243], the inhibitory constant (Ki) is greater than 10000 nM.
The same measure for `C[N+]1(C)CCN(c2ccccc2)CC1` [DMPP]: 10.7 nM; for `C[N+](C)(C)CCCCCCCCCC[N+](C)(C)C` [Decamethonium Iodide]: 962 nM; for `CN1[C@@H](C[C@@H](O)c2ccccc2)CCC[C@H]1CC(=O)c1ccccc1` [Lobeline]: 1.92 nM.
The figure for `CNC1(C)C2CCC(C2)C1(C)C` (stereo unspecified) [Methyl-(2,3,3-trimethyl-bicyclo[2.2.1]hept-2-yl)-amine(Mecamylamine)] is greater than 10000 nM.
The same measure for `CCN1C[C@]2(COC(=O)c3ccccc3-n3c(O)cc(C)c3O)CC[C@H](OC)[C@]34C5C[C@@H]6[C@@H](OC)C[C@@](O)(C5[C@H]6OC)[C@@](O)(C13)[C@@H](OC)C24` (stereo partly drawn) [[(1S,4S,5R,6S,8R,9R,13S,16S,18S)-11-ethyl-8,9-dihydroxy-4,6,16,18-tetramethoxy-11-azahexacyclo[7.7.2.1^{2,5}.0^{1,10}.0^{3,8}.0^{13,17}]nonadecan-13-yl]methyl 2-[(3S)-3-methyl-2,5-dioxopyrrolidin-1-yl]benzoate]: 3210 nM.
